Test results published in patent publication US20260183303A1, “PDK1 REGULATORY COMPOUND AND COMPOSITION CONTAINING THE SAME” (PROVIBIO CO., LTD., priority 2024, published 2026).

System: T cells isolated from mouse spleens
Test: T cell proliferation inhibition (CFSE flow cytometry, anti-CD3/anti-CD28 activation)
Format: cell-based, C57BL/6 mice
Conditions: mouse spleen T cells, CD3/CD28 activated, cultured three days
Procedure: To verify the T cell proliferation inhibitory effect of the compounds according to the present invention, the following experiment was performed based on flow cytometry analysis using carboxyfluorescein diacetate succinimidyl ester (CFSE), a fluorescent dye that binds to intracellular molecules via covalent bonds.
Spleens were extracted from 7-week-old C57BL/6 mice, ground, and then separated into single cells using a strainer ([…], SPL). Red blood cells were removed using ACK (Ammonium-Chloride-Potassium) lysis buffer to isolate white blood cells.
Finally, using a MACS Magnetic Stand and LS column, T cells were isolated from the spleen.
The T cells isolated from the spleen were resuspended in 1 mL of free medium (RPMI-1640+200 U/mL penicillin+200 μg/mL streptomycin), and 0.3 μL of CFSE (10 mM) was added. The mixture was incubated at 37° C. for 5 minutes.
Free medium (10 mL) was added to stop the reaction, and the cells were centrifuged to obtain the cell pellet.
RPMI 1640 medium containing 10% FBS, 100 U/mL penicillin, 100 μg/mL streptomycin, and resuspended the cells. The cells were then seeded into a 96-well plate at a density of 2×10^5 cells per well and activated with CD3 and CD28 antibodies ([…]) to activate T cells.
The compound diluted in DMSO was added at concentrations of 10 nM, 100 nM, 1 μM, […], 30 μM, and 50 µM, with three wells per concentration, and cultured at 37° C. and 5% CO2 for three days. The cells were then analyzed using a FACS Canto instrument.
The proliferation inhibition rate (%) was calculated using the following formula: […]

With `Nc1ncccc1C(=O)NCCCCCCCCCCCCN1CCC2CCCCC2C1` (stereo not shown) [Compound 16, 2-Amino-N-(12-(Octahydroisoquinolin-2(1H)-Yl)Dodecyl) Nicotinamide] the “Proliferation inhibition rate (%)” value (1 μM) was 100.00%, the “Proliferation inhibition rate (%)” value (10 μM) was 100.00% and the “Proliferation inhibition rate (%)” value (30 μM) was 100.00%. For the same compound, the “Proliferation inhibition rate (%)” value (50 μM) was 100.00%.
For `Nc1ncccc1C(=O)NCCCCCCCCCCCCN1CCc2ccccc2C1` [Compound 17, 2-Amino-N-(12-(3,4-dihydroisoquinolin-2(1H)-yl)dodecyl) nicotinamide], the “Proliferation inhibition rate (%)” value (10 nM, listed as PBK-2024-004, 0.01 µM) was 0.00%, the “Proliferation inhibition rate (%)” value (100 nM, listed as PBK-2024-004, 0.1 µM) was −14.00% and the “Proliferation inhibition rate (%)” value (1 μM, listed as PBK-2024-004, 1 µM) was 100.00%. The “Proliferation inhibition rate (%)” value (10 μM, listed as PBK-2024-004, 10 µM) was 100.00%.
With `CC1(C)CCN(CCCCCCCCCCCCNC(=O)c2cccnc2N)C1` [Compound 22, 2-Amino-N-(12-(3,3-dimethylpyrrolidin-1-yl)dodecyl) nicotinamide] the “Proliferation inhibition rate (%)” value (10 nM) was −0.80%, the “Proliferation inhibition rate (%)” value (100 nM) was 100.00% and the “Proliferation inhibition rate (%)” value (1 μM) was 100.00%. For the same compound, the “Proliferation inhibition rate (%)” value (10 μM) was 100.00%, the “Proliferation inhibition rate (%)” value (30 μM) was 100.00% and the “Proliferation inhibition rate (%)” value (50 μM) was 100.00%.
With `COC1CCN(CCCCCCCCCCCCNC(=O)c2cccnc2N)C1` (stereo not shown) [Compound 32, 2-Amino-N-(12-(3-methoxypyrrolidin-1-yl)dodecyl) nicotinamide] the “Proliferation inhibition rate (%)” value (10 nM, listed as PBK-2024-024, 0.01 µM) was 0.29% and the “Proliferation inhibition rate (%)” value (50 μM) was 100.00%.
With `CN(CCCCCCCCCCCCNC(=O)c1cccnc1N)C1CCCCC1` [Compound 34, 2-Amino-N-(12-(cyclohexyl(methyl)amino)dodecyl) nicotinamide] the “Proliferation inhibition rate (%)” value (100 nM) was 100.00%, the “Proliferation inhibition rate (%)” value (1 μM) was 100.00% and the “Proliferation inhibition rate (%)” value (10 μM) was 100.00%. For the same compound, the “Proliferation inhibition rate (%)” value (30 μM) was 100.00% and the “Proliferation inhibition rate (%)” value (50 μM) was 100.00%.
In the case of `CC1CN(CCCCCCCCCCCCNC(=O)c2cccnc2N)C(C)CN1.Cl` (stereo not shown) [Compound 36, 2-Amino-N-(12-(2,5-dimethylpiperazin-1-yl)dodecyl) nicotinamide hydrochloride], the “Proliferation inhibition rate (%)” value (100 nM) is reported as 100.00%, the “Proliferation inhibition rate (%)” value (1 μM) is reported as 100.00% and the “Proliferation inhibition rate (%)” value (10 μM) is reported as 100.00%. The “Proliferation inhibition rate (%)” value (30 μM) was 100.00% and the “Proliferation inhibition rate (%)” value (50 μM) was 100.00%.
In the case of `C[C@H]1CNCCN1CCCCCCCCCCCCNC(=O)c1cccnc1N.Cl` [Compound 37, (S)-2-Amino-N-(12-(2-methylpiperazin-1-yl)dodecyl) nicotinamide hydrochloride], the “Proliferation inhibition rate (%)” value (1 μM) is reported as 100.00%, the “Proliferation inhibition rate (%)” value (10 μM) is reported as 100.00% and the “Proliferation inhibition rate (%)” value (30 μM) is reported as 100.00%. For the same compound, the “Proliferation inhibition rate (%)” value (50 μM) was 100.00%.
`CC1CCCN(CCCCCCCCCCCCNC(=O)c2cccnc2N)CC1` (stereo not shown) [Compound 39, 2-Amino-N-(12-(4-methylazepan-1-yl)dodecyl) nicotinamide] was tested, and the “Proliferation inhibition rate (%)” value (100 nM) was 100.00%, the “Proliferation inhibition rate (%)” value (1 μM) was 100.00% and the “Proliferation inhibition rate (%)” value (10 μM) was 100.00%. The “Proliferation inhibition rate (%)” value (30 μM) was 100.00% and the “Proliferation inhibition rate (%)” value (50 μM) was 100.00%.
With `CC1CN(C)C(CCCCCCCCCCCCNc2ccc3cncnc3n2)N1` (stereo not shown) [Compound 43] the “Proliferation inhibition rate (%)” value (100 nM) was 100.00%, the “Proliferation inhibition rate (%)” value (1 μM) was 100.00% and the “Proliferation inhibition rate (%)” value (10 μM) was 100.00%. The “Proliferation inhibition rate (%)” value (30 μM) was 100.00% and the “Proliferation inhibition rate (%)” value (50 μM) was 100.00%.
`Nc1ncccc1C(=O)NCCCCCCCCCCCCN1CCC(O)CC1` [Compound 48, 2-Amino-N-(12-(4-hydroxypiperidin-1-yl)dodecyl) nicotinamide] was tested, and the “Proliferation inhibition rate (%)” value (100 nM) was 100.00%, the “Proliferation inhibition rate (%)” value (1 μM) was 100.00% and the “Proliferation inhibition rate (%)” value (10 μM) was 100.00%. The “Proliferation inhibition rate (%)” value (30 μM) was 100.00% and the “Proliferation inhibition rate (%)” value (50 μM) was 100.00%.
`CN(CCCCCCCCCCCCNC(=O)c1cccnc1N)C(C)(C)C` [Compound 53, 2-Amino-N-(12-(tert-butyl(methyl)amino)dodecyl) nicotinamide] was tested, and the “Proliferation inhibition rate (%)” value (100 nM) was 100.00%, the “Proliferation inhibition rate (%)” value (1 μM) was 100.00% and the “Proliferation inhibition rate (%)” value (10 μM) was 100.00%. The “Proliferation inhibition rate (%)” value (30 μM) was 100.00% and the “Proliferation inhibition rate (%)” value (50 μM) was 100.00%.
For `Nc1ncccc1C(=O)NCCCCCCCCCCCCN1CCN(CCO)CC1` [Compound 54, 2-Amino-N-(12-(4-(2-hydroxyethyl)piperazin-1-yl)dodecyl) nicotinamide], the “Proliferation inhibition rate (%)” value (100 nM) was 100.00%, the “Proliferation inhibition rate (%)” value (1 μM) was 100.00% and the “Proliferation inhibition rate (%)” value (10 μM) was 100.00%. The “Proliferation inhibition rate (%)” value (30 μM) was 100.00% and the “Proliferation inhibition rate (%)” value (50 μM) was 100.00%.
For `COC1CCN(CCCCCCCCCCCCNC(=O)c2cccnc2N)CC1` [Compound 94, 2-amino-N-(12-(4-methoxypiperidin-1-yl)dodecyl) nicotinamide], the “Proliferation inhibition rate (%)” value (100 nM) was 100.00%, the “Proliferation inhibition rate (%)” value (1 μM) was 100.00% and the “Proliferation inhibition rate (%)” value (10 μM) was 100.00%. The “Proliferation inhibition rate (%)” value (30 μM) was 100.00% and the “Proliferation inhibition rate (%)” value (50 μM) was 100.00%.
In the case of `Nc1ncccc1C(=O)NCCCCCCCCCCCCN1CCN(C=O)CC1` [Compound 97, 2-amino-N-(12-(4-formylpiperazin-1-yl)dodecyl) nicotinamide], the “Proliferation inhibition rate (%)” value (1 μM) is reported as 100.00%, the “Proliferation inhibition rate (%)” value (10 μM) is reported as 100.00% and the “Proliferation inhibition rate (%)” value (30 μM) is reported as 100.00%. For the same compound, the “Proliferation inhibition rate (%)” value (50 μM) was 100.00%.
In the case of `Nc1ncccc1C(=O)NCCCCCCCCCCCCN1CCN(C(=O)C2CC2)CC1` [Compound 99, 2-amino-N-(12-(4-(cyclopropanecarbonyl)piperazin-1-yl)dodecyl) nicotinamide], the “Proliferation inhibition rate (%)” value (10 nM) is reported as −12.13%, the “Proliferation inhibition rate (%)” value (100 nM) is reported as 100.00% and the “Proliferation inhibition rate (%)” value (1 μM) is reported as 100.00%. The “Proliferation inhibition rate (%)” value (10 μM) was 100.00%, the “Proliferation inhibition rate (%)” value (30 μM) was 100.00% and the “Proliferation inhibition rate (%)” value (50 μM) was 100.00%.
In the case of `CC(C)(C)OC(=O)NC1CCN(CCCCCCCCCCCCNC(=O)c2cccnc2N)CC1` [Compound 101, tert-Butyl (1-(12-(2-aminonicotinamido)dodecyl)piperidin-4-yl) carbamate], the “Proliferation inhibition rate (%)” value (10 nM) is reported as −0.15%, the “Proliferation inhibition rate (%)” value (100 nM) is reported as 100.00% and the “Proliferation inhibition rate (%)” value (1 μM) is reported as 100.00%. For the same compound, the “Proliferation inhibition rate (%)” value (10 μM) was 100.00%, the “Proliferation inhibition rate (%)” value (30 μM) was 100.00% and the “Proliferation inhibition rate (%)” value (50 μM) was 100.00%.
In the case of `CC(C)N1CCN(CCCCCCCCCCCCNC(=O)c2cccnc2N)CC1` [Compound 104, 2-Amino-N-(12-(4-isopropylpiperazin-1-yl)dodecyl) nicotinamide], the “Proliferation inhibition rate (%)” value (10 nM) is reported as 100.00%, the “Proliferation inhibition rate (%)” value (100 nM) is reported as 100.00% and the “Proliferation inhibition rate (%)” value (1 μM) is reported as 100.00%. For the same compound, the “Proliferation inhibition rate (%)” value (10 μM) was 100.00%, the “Proliferation inhibition rate (%)” value (30 μM) was 100.00% and the “Proliferation inhibition rate (%)” value (50 μM) was 100.00%.
`Nc1ncccc1C(=O)NCCCCCCCCCCCCn1ccc2c(Cl)c(I)cnc21` [Compound 109, 2-Amino-N-(12-(4-chloro-5-iodo-1H-pyrrolo[2,3-b]pyridin-1-yl)dodecyl) nicotinamide] was tested, and the “Proliferation inhibition rate (%)” value (10 nM) was 0.15%, the “Proliferation inhibition rate (%)” value (100 nM) was 8.48% and the “Proliferation inhibition rate (%)” value (1 μM) was 20.91%. The “Proliferation inhibition rate (%)” value (10 μM) was 100.00%, the “Proliferation inhibition rate (%)” value (30 μM) was 100.00% and the “Proliferation inhibition rate (%)” value (50 μM) was 100.00%.
In the case of `CC(C)(C)OC(=O)N1CCN(CCCCCCCCCCCCNC(=O)c2cccnc2N)CC1` [Compound 111, tert-butyl-4-(12-(2-aminonicotinamido)dodecyl) piperazine-1-carboxylate], the “Proliferation inhibition rate (%)” value (10 nM) is reported as 0.00%, the “Proliferation inhibition rate (%)” value (100 nM) is reported as 100.00% and the “Proliferation inhibition rate (%)” value (1 μM) is reported as 100.00%. The “Proliferation inhibition rate (%)” value (10 μM) was 100.00%, the “Proliferation inhibition rate (%)” value (30 μM) was 100.00% and the “Proliferation inhibition rate (%)” value (50 μM) was 100.00%.
`CC(C)(C)OC(=O)N[C@@H]1CCCN(CCCCCCCCCCCCNC(=O)c2cccnc2N)C1` [Compound 117, tert-butyl-(R)-(1-(12-(2-aminonicotinamido)dodecyl)piperidin-3-yl)carbamate] showed an inhibition at 0.01 µM (Mus musculus, T-cell, 72 h, 10 nM, read-out: Proliferation inhibition rate (%)) of -15.8%, an inhibition at 0.1 µM (Mus musculus, T-cell, 72 h, 100 nM, read-out: Proliferation inhibition rate (%)) of 100% and an inhibition at 1 µM (Mus musculus, T-cell, 72 h, 1 μM, read-out: Proliferation inhibition rate (%)) of 100%. The inhibition at 10 µM (Mus musculus, T-cell, 72 h, 10 μM, read-out: Proliferation inhibition rate (%)) was 100%, the inhibition at 30 µM (Mus musculus, T-cell, 72 h, 30 μM, read-out: Proliferation inhibition rate (%)) was 100% and the inhibition at 50 µM (Mus musculus, T-cell, 72 h, 50 μM, read-out: Proliferation inhibition rate (%)) was 100%.
